For 61 compounds, logD results are on record in the SangsterLogP compilation.

What is called logD is the decadic logarithm of the distribution of all forms, ionised or not, between an organic phase and buffer at a given pH.

The conditions of one series: pH 2.0.
`Cc1ccccc1O[C@@H]1C(=O)N(Cc2ccc3c(c2)OCO3)[C@H]1c1ccc2c(c1)OCO2` registered a logD of 4.37.
`CC[C@@H](OC(=O)CNC(=O)c1ccc(N2C(=O)c3ccccc3C2=O)cc1)C(=O)c1ccccc1`: the logD turned out to be 4.15.

Still in this series, the particulars now being: pH 5.0.
The compound `CC(=O)Nc1ccc(/N=C/c2c(O)oc3ccccc3c2=O)cc1` showed a pH-dependent lipophilicity (logD) of 3.64.
`COC(=O)c1ccc([C@@H]2C3=C(C[C@H](c4ccco4)CC3=O)Nc3ccccc3N2C(=O)C2CC2)cc1` displayed a logD of 4.44.
With `CC1=C(C)C[C@@H]2C(=O)N(c3cccc(Br)c3)C(=O)[C@H]2C1`, the logD worked out at 3.93.
Compound `C[C@@H]1CCC[C@H](C)N1C(=O)COC(=O)c1ccc2c(c1)S(=O)(=O)c1ccccc1C2=O` showed a logD of 4.39.
Consider `CC(=O)c1c(C)[nH]c(C(=O)COC(=O)c2ccccc2NC(=O)c2ccco2)c1C`, for which the logD was determined as 4.73.
Take `CC[C@H](C)NC(=O)NC(C(F)(F)F)C(F)(F)F`: the logD came to 2.84.
Still for that read-out and setting: to `O=C1[C@H]2OC[C@H](O2)[C@H]2[C@@H]1[C@@H]1C=C[C@H]2C1` belongs 1.48; to `O=C(Nc1cccc(Cl)c1)c1cc2n(n1)[C@H](C(F)(F)F)C[C@@H](c1ccccc1)N2`, 5.92.
For `CC(=O)Oc1ccc(C(=O)Nc2cccc(C(=O)c3cccc(NC(=O)c4ccc(OC(C)=O)cc4)c3)c2)cc1`, the logD came out at 5.34.
Same read-out and setting: then `COc1ccc([C@@H]2C3=C(C[C@H](c4ccco4)CC3=O)Nc3ccccc3N2C(=O)C(F)(F)F)cc1`, with 4.62; and `COc1ccccc1NC(=O)C1=C(C)NC(SCC(=O)Nc2ccc(C)c(Cl)c2)=C(C#N)[C@@H]1c1ccco1`, with 6.27.
For the compound `CCN(CC)S(=O)(=O)c1ccc(/C=C/C(=O)NC2CCCCC2)cc1`, the logD was 4.34.
Compound `CCCCN1C(=O)N(C)[C@@H]2[C@H]1N(C)C(=O)N2CCCC` showed a logD of 2.69.
In turn, `Cc1c(Nc2nc3ccccc3nc2Nc2cccc(Cl)c2)c(=O)n(-c2ccccc2)n1C` registered a pH-dependent lipophilicity (logD) of 5.96.
`O=C(/C=C/Nc1cccc(C(F)(F)F)c1)c1ccc(Br)cc1`: the logD turned out to be 5.65.
For the compound `CCC(=O)N1c2ccccc2NC2=C(C(=O)CC(C)(C)C2)[C@H]1c1ccc(-c2ccc([N+](=O)[O-])cc2Cl)o1`, the logD is 5.55.
In the case of `Cc1ccc(N2C(=O)c3ccccc3N[C@H]2c2cccc([N+](=O)[O-])c2)cc1`, the logD was determined as 4.18.
As for `CCCC[C@H](CC)Cn1c(SCC(=O)Nc2ccc(OC)cc2)nc2c1c(=O)n(C)c(=O)n2C`, the logD was found to be 5.51.
Take `O=C1/C(=C/c2ccsc2)SC(=S)N1c1cccc(C(F)(F)F)c1`: the logD was 5.8.
Take `COC(=O)c1c(NC(=O)Cn2nc(C)c([N+](=O)[O-])c2C)sc2c1CC[C@H](C(C)(C)C)C2`: the logD was 6.53.
Regarding `COc1ccc(N(C(=O)C2CCCCC2)S(=O)(=O)c2ccc3c4c(cccc24)C(=O)N3C)cc1`, the logD came out at 5.26.
Regarding `CCCN(CCC)S(=O)(=O)c1ccc(C(=O)OCCN2C(=O)C3C4c5ccccc5C(c5ccccc54)C3C2=O)cc1` (stereo unspecified), the logD is 4.17.
The compound `CCNC(=O)/C(=C/c1cn(-c2ccccc2)nc1-c1cccs1)NC(=O)c1ccccc1` came in with a logD of 4.64.
Take `O=C(NCc1ccc(F)cc1)c1nn2c(c1Br)N[C@H](c1cccs1)C[C@H]2C(F)(F)F`: the pH-dependent lipophilicity (logD) turned out to be 5.54.
Consider `O=C(Nc1ccc(C(F)(F)F)cc1)[C@H]1CCc2ccccc2O1`, for which the logD came out at 4.5.
Still for that read-out and setting: then `COc1ccc(C(=O)/C=C/Nc2ccc(Cl)c(C(F)(F)F)c2)cc1OC`, with 5.31.
In the case of `O=C(c1sc2cc(Cl)ccc2c1Cl)N1CCN(C(=S)NC[C@H]2CCCO2)CC1`, the logD is 4.83.
Same read-out and setting: then `O=C1c2ccccc2C(=O)N1/N=C/c1cc([N+](=O)[O-])ccc1Cl`, with 4.03.
As to `COc1cc2c(cc1OC)[C@@H](COc1ccc(F)cc1)N(C(=O)/C=C/c1ccccc1)CC2`, the logD was 5.45.

The series is the same for the next values; noted with them: pH 6.5.
Compound `NC(=O)C(C(=O)/C=C/c1ccc(Cl)cc1)=C1SCS1` had a logD of 3.64.
For the compound `COc1cccc(/C=C/C(=O)OCC(=O)c2cc(C)n(-c3cc(C)on3)c2C)c1`, the logD turned out to be 5.2.
In turn, `COc1cc(/C=C(\NC(=O)c2ccccc2)C(=O)Nc2cccc(CO)c2)ccc1OC(C)=O` returned a logD of 4.04.
In the case of `C[C@H]1CCCC[C@@H]1NC(=O)COc1ncnc2ccccc12`, the logD was 3.11.
`O=C(CN1N=N[C@@H]2C(=O)N(c3ccc(Cl)cc3Cl)C(=O)[C@@H]21)Nc1ccccc1` gave a logD of 4.3.
Compound `Cc1ccc(CN2C(=O)/C(=C/[C@@H]3CC=CCC3)SC2=S)cc1` came in with a logD of 6.26.
Still for that read-out and setting: then `CCCCNC(=S)N(C)/N=C/c1ccc(OCc2ccc(Cl)cc2)c(OC)c1`, with 6.8.
Same read-out and setting: then `CC(C)(C)S(=O)(=O)/C(C#N)=C/Nc1ccc(OC(F)(F)F)cc1`, with 4.28; and `C[C@@H](CCc1ccccc1)NC(=O)C(=O)NC[C@@H]1COc2ccccc2O1`, with 4.8; and `COc1ccc(N2C(=S)N=C(N[C@@H]([C@@H](Oc3ccc(Cl)cc3)n3cncn3)C(C)(C)C)C2(C)C)cc1`, with 5.56.
Same read-out and setting: to `O=P(Oc1ccccc1)(Oc1ccccc1)O[C@@H]1C=CS(=O)(=O)C1` belongs 2.48.

The same series, now with this note: pH 7.3.
`CCOP(=O)(Cc1ccc(CP(=O)(OCC)OCC)o1)OCC`: the logD is 3.25.
As for `O=C(c1cccc(S(=O)(=O)N2CCOCC2)c1)N1CCN(c2cccc(Cl)c2)CC1`, the logD was found to be 4.34.
Same read-out and setting: then `Cc1cc(C)nc(-n2nc(C)c3c2NC2=CC(C)(C)CC(=O)[C@H]2[C@@H]3c2ccco2)n1`, with 4.34; and `CCOc1ccc([C@@H]2Oc3nc(SC)nnc3-c3ccccc3N2C(=O)CC)cc1OC`, with 3.95; and `CCOC(=O)C1=C(N)n2c(s/c(=C\c3ccc(C(=O)OC)cc3)c2=O)=C(C(=O)OC)C1c1ccc(C(=O)OC)cc1` (stereo unspecified), with 6.95.
As to `Cc1cc(C)n(-c2ccc(-n3cccc3/C=C(\C#N)S(C)(=O)=O)cc2)n1`, the logD came out at 4.25.

The series is the same for the next values; noted with them: pH 8.0.
`CC[C@H]1CS/C(=N\c2cccc(C)c2)N1C(=O)CCN1C(=O)c2ccccc2C1=O` came in with a pH-dependent lipophilicity (logD) of 4.96.

The series is the same for the next values; noted with them: pH 10.0.
`NC(=O)c1cc(N2C(=O)[C@H]3CC=CC[C@@H]3C2=O)ccc1N1CCCCC1` displayed a logD of 3.68.
Regarding `CCO/C(O)=C/c1nc2nonc2nc1O`, the logD turned out to be 1.61.
Turning to `CCOCc1c(C)cc(C)c([C@@H]2C(C#N)=C(N)Oc3[nH]nc(C)c32)c1C`, the logD was determined as 4.09.
Same read-out and setting: then `COc1cc([C@@H]2Nc3cc(C)c(C)cc3NC3=C2C(=O)CC(C)(C)C3)cc(OC)c1OC(C)=O`, with 4.21.
Consider `CCOC(=O)C1=C(N)N2C(=O)[C@H](C)SC2=C(C(=O)OCC)[C@H]1c1ccc(Cl)cc1Cl`, for which the logD amounted to 5.49.
In turn, `C[C@H]1C[C@H](C)CN(C(=O)CSc2nnc(-c3ccccc3)n2C)C1` showed a logD of 3.68.

The same series, now with this note: pH 10.5.
As to `CCCc1[nH]nc2c1[C@H](c1ccsc1C)C(C#N)=C(N)O2`, the logD is 3.83.
On to `C[C@H](NC(=O)CSc1ncnc2c1cnn2-c1ccccc1)c1ccccc1`, for which the logD amounted to 4.73.
For the compound `Nc1nc(O/N=C/c2ccc([N+](=O)[O-])cc2)nc(N2CCOCC2)n1`, the logD turned out to be 3.18.
`Cn1c(N)c(C(=O)CSc2nc3sc4c(c3c(=O)n2Cc2ccccc2)CCC4)c(=O)n(C)c1=O` registered a logD of 5.21.
Still for that read-out and setting: to `C/C(=C\c1ccco1)[C@H]1C(C#N)=C(N)Oc2n[nH]c(-c3ccccc3)c21` belongs 4.82; to `CC(=O)C1=C(C)NC(SCC(=O)c2ccc(Cl)cc2Cl)=C(C#N)[C@@H]1c1cccs1`, 5.25.
